The source of these data is patent publication US20070128217A1 (priority 2003, published 2007).

The subject of experiment [1] is rabbit serum obtained by immunizing a rabbit with the SARS-CoV strain Frankfurt 1. The format is binding. The arrangement: Binding of a rabbit serum to linear peptides / Binding of a rabbit serum to looped peptides / Rabbit serum linear peptides / Rabbit serum looped peptides / Binding of a rabbit serum to linear peptides of protein N of SARS-CoV Urbani (Rabbit serum linear peptides) / Binding of a rabbit serum to looped/cyclic peptides of protein N of SARS-CoV Urbani (Rabbit serum looped peptides): unit not given here.

Experiment [2] concerns antibodies in sera from SARS patients (sera 1a, 1b, 2, 6, 37, 62, London, SARS-yellow, SARS-green). The format is binding, human. The arrangement: Binding of serum 6 to linear peptides of protein X1 of SARS-CoV Urbani / Binding of serum 37 to linear peptides of protein X1 of SARS-CoV Urbani / Binding of serum 6 to looped/cyclic peptide (PEPSCAN-ELISA) / Binding of serum 37 to looped/cyclic peptide (PEPSCAN-ELISA) / Binding of serum 37 to looped/cyclic peptides of protein X1 of SARS-CoV Urbani / Binding of serum 6 to linear peptides of protein X2 / Binding of serum 37 to linear peptides of protein X2 / Binding of serum 37 to looped/cyclic peptides of protein X2 of SARS-CoV Urbani / Binding of serum 6 to linear peptides of protein M of SARS-CoV Urbani / Binding of serum 37 to linear peptides of protein M of SARS-CoV Urbani / Binding of serum 6 to looped/cyclic peptides of protein M of SARS-CoV Urbani / Binding of serum 37 to looped/cyclic peptides of protein M of SARS-CoV Urbani / Binding of serum 6 to linear peptides of protein X3 of SARS-CoV Urbani / Binding of serum 37 to linear peptides of protein X3 of SARS-CoV Urbani / Binding of serum 37 to looped/cyclic peptides of protein X3 of SARS-CoV Urbani / Binding of serum 6 to linear peptides of protein X4 of SARS-CoV Urbani / Binding of serum 37 to linear peptides of protein X4 of SARS-CoV Urbani / Binding of serum 37 to looped/cyclic peptides of protein X4 of SARS-CoV Urbani / Binding of serum 6 to linear peptides of protein X5 of SARS-CoV Urbani / Binding of serum 37 to linear peptides of protein X5 of SARS-CoV Urbani / Binding of serum 37 to looped/cyclic peptides of protein X5 of SARS-CoV Urbani / Binding of serum 6 to linear peptides of protein N of SARS-CoV Urbani / Binding of serum 37 to linear peptides of protein N of SARS-CoV Urbani / Binding of serum 6 to linear peptide (PEPSCAN-ELISA) / Binding of serum 1a to looped/cyclic peptides of protein N of SARS-CoV Urbani / Binding of serum 1b to looped/cyclic peptides of protein N of SARS-CoV Urbani / Binding of serum 2 to looped/cyclic peptides of protein N of SARS-CoV Urbani / Binding of serum 6 to looped/cyclic peptides of protein N of SARS-CoV Urbani / Binding of serum 37 to looped/cyclic peptides of protein N of SARS-CoV Urbani / Binding of serum 62 to looped/cyclic peptides of protein N of SARS-CoV Urbani / Binding of serum London to looped/cyclic peptides of protein N of SARS-CoV Urbani / Binding of serum SARS-green to looped/cyclic peptides of protein N of SARS-CoV Urbani: unit not given here.

For experiment [3], the system named is control sera (pooled serum of ten healthy LUMC hospital workers; commercial negative donor pooled serum from the Dutch bloodbank). The format is binding, human. The arrangement: Binding of Control serum LUMC to linear peptides / Binding of Control serum Blood-bank to linear peptides / Binding of Control serum LUMC to looped peptides / Binding of Control Serum Blood-Bank to Looped peptides / Binding of Control serum LUMC to linear peptides of the protein M of SARS-CoV Urbani / Binding of Control serum Blood-bank to linear peptides of the protein M of SARS-CoV Urbani / Binding of Control serum LUMC to looped peptides of the protein M of SARS-CoV Urbani / Binding of Control Serum Blood-Bank to Looped peptides of the protein M of SARS-CoV Urbani: unit not given here.

For the sequence HKKVSTNLCTHSFRK, in experiment [1], the “Binding of a rabbit serum to linear peptides” value was 0.4 and the “Binding of a rabbit serum to looped peptides” value is on record as 0.1. Further, in experiment [2], the “Binding of serum 1a to looped/cyclic peptides of protein X2 of SARS-CoV Urbani” value was found to be 0.6, the “Binding of serum 1b to looped/cyclic peptides of protein X2 of SARS-CoV Urbani” value came to 0.4, the “Binding of serum 2 to looped/cyclic peptides of protein X2 of SARS-CoV Urbani” value stood at 0.8 and the “Binding of serum 6 to looped/cyclic peptides of protein X2 of SARS-CoV Urbani” value is listed as 0.6. Moreover, in experiment [2], the “Binding of serum 37 to looped/cyclic peptides of protein X2 of SARS-CoV Urbani” value turned out to be 0.5, the “Binding of serum 62 to looped/cyclic peptides of protein X2 of SARS-CoV Urbani” value is 0.7, the “Binding of serum London to looped/cyclic peptides of protein X2 of SARS-CoV Urbani” value is listed as 0.3 and the “Binding of serum SARS-green to looped/cyclic peptides of protein X2 of SARS-CoV Urbani” value is recorded as 0.3. Further, in experiment [2], the “Binding of serum SARS-yellow to looped/cyclic peptides of protein X2 of SARS-CoV Urbani” value turned out to be 0.6; the “Recognition of the peptide by sera of SARS-CoV infected individuals, and form (linear, looped/cyclic) in which it is recognized” value is recorded as “recognized in linear form”. Besides, in experiment [3], the “Binding of Control Serum Blood-Bank to Looped peptides” value was 0.5, the “Binding of Control serum Blood-bank to linear peptides” value turned out to be 0.8, the “Binding of Control serum LUMC to linear peptides” value amounted to 0.9 and the “Binding of Control serum LUMC to looped peptides” value came to 0.8.

As to HLLLVAAGMEAQFLY, in experiment [1], the “Binding of a rabbit serum to linear peptides” value came out at 0.5 and the “Binding of a rabbit serum to looped peptides” value was found to be 0.4. Also, in experiment [2], the “Binding of serum 1a to linear peptides of protein X1 of SARS-CoV Urbani” value turned out to be 0.9, the “Binding of serum 1a to looped/cyclic peptide (PEPSCAN-ELISA)” value was determined as 0.5, the “Binding of serum 1b to linear peptides of protein X1 of SARS-CoV Urbani” value turned out to be 0.7 and the “Binding of serum 1b to looped/cyclic peptide (PEPSCAN-ELISA)” value turned out to be 0.6. Further, in experiment [2], the “Binding of serum 2 to linear peptides of protein X1 of SARS-CoV Urbani” value was determined as 0.6, the “Binding of serum 2 to looped/cyclic peptide (PEPSCAN-ELISA)” value is given as 0.6, the “Binding of serum 6 to linear peptides of protein X1 of SARS-CoV Urbani” value is on record as 0.5 and the “Binding of serum 6 to looped/cyclic peptide (PEPSCAN-ELISA)” value is 0.1. Further, in experiment [2], the “Binding of serum 37 to linear peptides of protein X1 of SARS-CoV Urbani” value worked out at 0.7, the “Binding of serum 37 to looped/cyclic peptide (PEPSCAN-ELISA)” value turned out to be 0.6, the “Binding of serum 62 to linear peptides of protein X1 of SARS-CoV Urbani” value was found to be 0.7 and the “Binding of serum 62 to looped/cyclic peptide (PEPSCAN-ELISA)” value amounted to 0.6. In experiment [2], the “Binding of serum London to linear peptides of protein X1 of SARS-CoV Urbani” value amounted to 0.3, the “Binding of serum London to looped/cyclic peptide (PEPSCAN-ELISA)” value was 0.2, the “Binding of serum SARS-green to linear peptides of protein X1 of SARS-CoV Urbani” value is recorded as 0.2 and the “Binding of serum SARS-green to looped/cyclic peptide (PEPSCAN-ELISA)” value is reported as 0.4. In addition, in experiment [2], the “Binding of serum SARS-yellow to linear peptides of protein X1 of SARS-CoV Urbani” value is listed as 0.6 and the “Binding of serum SARS-yellow to looped/cyclic peptide (PEPSCAN-ELISA)” value is 0.3. Also, in experiment [3], the “Binding of Control Serum Blood-Bank to Looped peptides” value was found to be 0.6, the “Binding of Control serum Blood-bank to linear peptides” value was found to be 0.6, the “Binding of Control serum LUMC to linear peptides” value was found to be 0.7 and the “Binding of Control serum LUMC to looped peptides” value worked out at 0.4.

Turning to HTYQLRARSVSPKLF, the “Recognition of the peptide by the rabbit serum” value in experiment [1] was “recognized”. In addition, in experiment [2], the “Binding of serum 1a to linear peptides of protein X4 of SARS-CoV Urbani” value is recorded as 0.7, the “Binding of serum 1a to looped/cyclic peptides of protein X4 of SARS-CoV Urbani” value is listed as 0.8, the “Binding of serum 1b to linear peptides of protein X4 of SARS-CoV Urbani” value is 0.8 and the “Binding of serum 1b to looped/cyclic peptides of protein X4 of SARS-CoV Urbani” value is reported as 0.5. In experiment [2], the “Binding of serum 2 to linear peptides of protein X4 of SARS-CoV Urbani” value worked out at 0.6, the “Binding of serum 2 to looped/cyclic peptides of protein X4 of SARS-CoV Urbani” value was found to be 0.8, the “Binding of serum 6 to linear peptides of protein X4 of SARS-CoV Urbani” value came to 1.0 and the “Binding of serum 6 to looped/cyclic peptides of protein X4 of SARS-CoV Urbani” value worked out at 0.8. Further, in experiment [2], the “Binding of serum 37 to linear peptides of protein X4 of SARS-CoV Urbani” value came out at 1.0, the “Binding of serum 37 to looped/cyclic peptides of protein X4 of SARS-CoV Urbani” value is listed as 0.6, the “Binding of serum 62 to linear peptides of protein X4 of SARS-CoV Urbani” value stood at 0.9 and the “Binding of serum 62 to looped/cyclic peptides of protein X4 of SARS-CoV Urbani” value turned out to be 0.6. In experiment [2], the “Binding of serum London to linear peptides of protein X4 of SARS-CoV Urbani” value was determined as 0.8, the “Binding of serum London to looped/cyclic peptides of protein X4 of SARS-CoV Urbani” value amounted to 0.3, the “Binding of serum SARS-green to linear peptides of protein X4 of SARS-CoV Urbani” value amounted to 0.7 and the “Binding of serum SARS-green to looped/cyclic peptides of protein X4 of SARS-CoV Urbani” value is recorded as 0.4. Also, in experiment [2], the “Binding of serum SARS-yellow to linear peptides of protein X4 of SARS-CoV Urbani” value was determined as 0.5 and the “Binding of serum SARS-yellow to looped/cyclic peptides of protein X4 of SARS-CoV Urbani” value stood at 0.8. In experiment [3], the “Binding of Control Serum Blood-Bank to Looped peptides” value is on record as 0.8, the “Binding of Control serum Blood-bank to linear peptides” value came out at 1.0, the “Binding of Control serum LUMC to linear peptides” value was 0.9 and the “Binding of Control serum LUMC to looped peptides” value stood at 0.7.

On to IDGSSGVANPAMDPI, for which, in experiment [1], the “Binding of a rabbit serum to linear peptides” value amounted to 0.1 and the “Binding of a rabbit serum to looped peptides” value is 0.5. In experiment [2], the “Binding of serum 1a to linear peptides of protein X1 of SARS-CoV Urbani” value is listed as 0.7, the “Binding of serum 1a to looped/cyclic peptides of protein X1 of SARS-CoV Urbani” value was determined as 0.8, the “Binding of serum 1b to linear peptides of protein X1 of SARS-CoV Urbani” value was found to be 0.6 and the “Binding of serum 1b to looped/cyclic peptides of protein X1 of SARS-CoV Urbani” value was found to be 0.7. In addition, in experiment [2], the “Binding of serum 2 to linear peptides of protein X1 of SARS-CoV Urbani” value stood at 0.7, the “Binding of serum 2 to looped/cyclic peptides of protein X1 of SARS-CoV Urbani” value worked out at 0.5, the “Binding of serum 6 to linear peptides of protein X1 of SARS-CoV Urbani” value was 0.5 and the “Binding of serum 6 to looped/cyclic peptides of protein X1 of SARS-CoV Urbani” value turned out to be 0.3. Further, in experiment [2], the “Binding of serum 37 to linear peptides of protein X1 of SARS-CoV Urbani” value is 0.6, the “Binding of serum 37 to looped/cyclic peptides of protein X1 of SARS-CoV Urbani” value was 0.7, the “Binding of serum 62 to linear peptides of protein X1 of SARS-CoV Urbani” value is 0.6 and the “Binding of serum 62 to looped/cyclic peptides of protein X1 of SARS-CoV Urbani” value was found to be 0.6. Besides, in experiment [2], the “Binding of serum London to linear peptides of protein X1 of SARS-CoV Urbani” value stood at 0.4, the “Binding of serum SARS-green to linear peptides of protein X1 of SARS-CoV Urbani” value stood at 0.3, the “Binding of serum SARS-green to looped/cyclic peptides of protein X1 of SARS-CoV Urbani” value came to 0.6 and the “Binding of serum SARS-yellow to linear peptides of protein X1 of SARS-CoV Urbani” value came to 0.4. Also, in experiment [2], the “Binding of serum SARS-yellow to looped/cyclic peptides of protein X1 of SARS-CoV Urbani” value was found to be 0.4. Besides, in experiment [3], the “Binding of Control Serum Blood-Bank to Looped peptides” value is reported as 0.6, the “Binding of Control serum Blood-bank to linear peptides” value was 0.6, the “Binding of Control serum LUMC to linear peptides” value amounted to 0.6 and the “Binding of Control serum LUMC to looped peptides” value is on record as 0.7.
